This passage reports Activity results from ChEMBL document CHEMBL1131764, “Solid phase synthesis and biological activities of [Arg8]-vasopressin methylenedithioether” (1999).

The species entered for assay [1] is Rattus norvegicus. The assay is described as follows: In vitro biological activity in the absence of magnesium ions was determined in rats by Uterotonic test. Type of assay: functional.
The species entered for assay [2] is Rattus norvegicus. The assay is described as follows: Vasopressor test using phonoxybenzamine treated male rats was determined. Type of assay: functional.
For assay [3], the system named is Rattus norvegicus. The assay is described as follows: Antidiuretic test on conscious rats was determined. Type of assay: functional, Urine.

Regarding `N=C(N)NCCC[C@H](NC(=O)[C@@H]1CCCN1C(=O)[C@@H]1CSSC[C@H](N)C(=O)N[C@@H](Cc2ccc(O)cc2)C(=O)N[C@@H](Cc2ccccc2)C(=O)N[C@@H](CCC(N)=O)C(=O)N[C@@H](CC(N)=O)C(=O)N1)C(=O)NCC(N)=O` [VASOPRESSIN], the Activity in the assay listed under Rattus norvegicus [1] is 17 IU mg-1; in the assay filed under Rattus norvegicus [2] it was 412 IU mg-1; in the assay on Rattus norvegicus [3] it was 465 IU mg-1.
On the same counts, the results for `NC(=O)CC[C@@H]1NC(=O)[C@H](Cc2ccccc2)NC(=O)[C@H](Cc2ccc(O)cc2)NC(=O)[C@@H](N)CSCSC[C@@H](C(=O)N2CCC[C@H]2C(=O)N[C@@H](CCCN=C(N)N)C(=O)NCC(N)=O)NC(=O)[C@H](CC(N)=O)NC1=O` are 1.4 IU mg-1, 55.3 IU mg-1 and 46.5 IU mg-1.
